Literature values, collected in US11291673B2, “Topical doxycycline hydrogel with improved long-term stability” (Nanopharmaceutics, Inc., priority 2019, dated 2022).
Each block holds one molecule with its values, some of them ahead of it.

Assays:
[1] = tested on: experimental dry eye (EDE) model
mastitis = conditions: homogeneous suspension applied to the udder of a cow
[2] = compared to aqueous suspensions containing amphoteric dioxytetracycline

Molecule: C[C@H]1c2cccc(O)c2C(O)=C2C(=O)[C@]3(O)C(O)=C(C(N)=O)C(=O)[C@H](N(C)C)[C@@H]3[C@@H](O)[C@@H]21 [4-epidoxycycline]
anti-inflammatory and anti-proteolytic effects [1]: lack of anti-inflammatory and anti-proteolytic effects

Molecule: C[C@@H]1c2cccc(O)c2C(O)=C2C(=O)[C@]3(O)C(O)=C(C(N)=O)C(=O)[C@@H](N(C)C)[C@@H]3[C@@H](O)[C@@H]21 [6-epidoxycycline]
anti-inflammatory and anti-proteolytic effects [1]: lack of anti-inflammatory and anti-proteolytic effects

Molecule: C[C@H]1c2cccc(O)c2C(=O)C2=C(O)[C@]3(O)C(=O)C(C(N)=O)=C(O)[C@@H](N(C)C)[C@@H]3[C@@H](O)[C@@H]21 [Doxycycline monohydrate]
aqueous solubility (pHs above 6): < 0.8 mg/mL

The next lines start with results.

solubility (neutral pH): less than 10 mg/ml
Molecule: C[C@H]1c2cccc(O)c2C(=O)C2=C(O)[C@]3(O)C(=O)C(C(N)=O)=C(O)[C@@H](N(C)C)[C@@H]3[C@@H](O)[C@@H]21 [Doxycycline]

stability of suspension [2]: superior stability
Molecule: calcium dioxytetracycline
alleviation of mastitis (mastitis): rapid and complete alleviation of mastitis
